Reference: publication PMC3026871 (Cancer chemotherapy and pharmacology, 2010)
Marks after values point to notes of the source that are not given here.

What was measured:
[1] = test system: patients with advanced solid tumors; assay: Phase 1 safety: drug-related adverse events; type: in vivo
[2] = test system: patients with advanced solid tumors; assay: Clinical response; type: in vivo, human; settings: RECIST
[3] = ref Data on file, Millennium; cited from earlier work
[4] = test system: alpha-1 subunit of the GABA-A receptor; settings: ref Data on file, Millennium; cited from earlier work
human tumor xenografts = settings: cited from earlier work
[5] = ref Data on file, Millennium, cited from earlier work
dogs = settings: the most sensitive species; cited from earlier work
[6] = Plasma pharmacokinetics in patients; settings: for Cmin, Mean (SD): 6 hours after the second dose
[7] = QID-7D 25 mg, Day 7, Dose 2, steady state, n=6
[8] = QID-7D 35 mg, Day 7, Dose 2, steady state, n=3
[9] = QID-7D 45 mg, Day 7, Dose 2, steady state, n=3
[10] = QID-7D 55 mg, Day 7, Dose 2, steady state, n=4

O=C(O)c1ccc(Nc2ncc3c(n2)-c2ccc(Cl)cc2C(c2c(F)cccc2F)=NC3)cc1 [MLN8054]
Any drug-related adverse event, Any Grade ([1]; human, in vivo): 55 (90)
Any drug-related adverse event, Grade 3 ([1]; human, in vivo): 13 (21)
Drug-related Abnormal coordination, Any Grade ([1]; human, in vivo): 5 (8)
Drug-related Abnormal coordination, Grade 3 ([1]; human, in vivo): 1 (2)
Drug-related Anorexia, Any Grade ([1]; human, in vivo): 8 (13)
Drug-related Anorexia, Grade 3 ([1]; human, in vivo): 0 (0)
Drug-related Asthenia, Any Grade ([1]; human, in vivo): 6 (10)
Drug-related Asthenia, Grade 3 ([1]; human, in vivo): 1 (2)
Drug-related Confusion, Any Grade ([1]; human, in vivo): 11 (18)
Drug-related Confusion, Grade 3 ([1]; human, in vivo): 4 (7)
Drug-related Dizziness, Any Grade ([1]; human, in vivo): 7 (11)
Drug-related Dizziness, Grade 3 ([1]; human, in vivo): 1 (2)
Drug-related Fatigue, Any Grade ([1]; human, in vivo): 15 (25)
Drug-related Fatigue, Grade 3 ([1]; human, in vivo): 1 (2)
Drug-related Hallucination, Any Grade ([1]; human, in vivo): 1 (2)
Drug-related Hallucination, Grade 3 ([1]; human, in vivo): 1 (2)
Drug-related Hyperbilirubinemia, Any Grade ([1]; human, in vivo): 3 (5)
Drug-related Hyperbilirubinemia, Grade 3 ([1]; human, in vivo): 1 (2)
Drug-related Hyperglycemia, Any Grade ([1]; human, in vivo): 5 (8)
Drug-related Hyperglycemia, Grade 3 ([1]; human, in vivo): 1 (2)
Drug-related Increased blood alkaline phosphatase, Any Grade ([1]; human, in vivo): 4 (7)
Drug-related Increased blood alkaline phosphatase, Grade 3 ([1]; human, in vivo): 1 (2)
Drug-related Muscular weakness, Any Grade ([1]; human, in vivo): 5 (8)
Drug-related Muscular weakness, Grade 3 ([1]; human, in vivo): 1 (2)
Drug-related Nausea, Any Grade ([1]; human, in vivo): 10 (16)
Drug-related Nausea, Grade 3 ([1]; human, in vivo): 0 (0)
Drug-related Peripheral motor neuropathy, Any Grade ([1]; human, in vivo): 1 (2)
Drug-related Peripheral motor neuropathy, Grade 3 ([1]; human, in vivo): 1 (2)
Drug-related Somnolence, Any Grade ([1]; human, in vivo): 47 (77)
Drug-related Somnolence, Grade 3 ([1]; human, in vivo): 11(18)
Drug-related Vomiting, Any Grade ([1]; human, in vivo): 6 (10)
Drug-related Vomiting, Grade 3 ([1]; human, in vivo): 0 (0)
drug-related grade 4 or 5 AE ([1]; human, in vivo): no patient had a drug-related grade 4 or 5 AE
grade ≥ 3 mucositis or myelosuppression ([1]; human, in vivo): No dose studied was associated with grade ≥ 3 mucositis or myelosuppression
patients who died within 21 days of the last dose ([1]; nine patients, none of the deaths considered drug-related): 15%
patients with stable disease for greater than 6 cycles ([2]; 3 patients): 5%
complete or partial responses ([2]; 5–80 mg per day for 7, 14 or 21 days): No complete or partial responses were seen
patients with stable disease for at least 4 cycles ([2]; nine patients, all cohorts): 15%
dose-limiting toxicities (DLTs) in preclinical toxicology studies [3]: myelosuppression and gastrointestinal toxicity
binding to the alpha-1 subunit of the GABA-A receptor [4]: high-affinity binding
antitumor activity in xenograft models (human tumor xenografts): antitumor activity in human tumor xenografts including colon, prostate, and lung cancer models
plasma concentration whose maintenance is required for efficacy (human tumor xenografts; maintained for 8–12 hours per day, human tumor xenografts grown in mice): ~ 2000 nM
major phase 1 biotransformation pathway ([5]; human liver S9 fractions): Hydroxylation of the azepine moiety
predominant mechanism of biotransformation ([5]; human liver S9 fractions): Glucuronidation of the carboxylate moiety of MLN8054 to an acyl glucuronide
enzymes mediating biotransformation [5]: Glucuronidation was mediated by UGT1 and UGT2 and hydroxylation by CYP1A2, 2C9, 2C19, 2D6, and 3A4
highest non-severely toxic dose (dogs): 20 mg/m^2/day
dose proportionality of AUC0-24 hr and Cmax ([6]; QD dosing): roughly dose-proportional
Peak-to-Trough Ratio (Cmax/Cmin) ([6]; QD dosing, all dose levels): approximately 5
Geometric Mean Peak-to-Trough Ratio (Cmax/Cmin) ([6]; QD-7D 5 mg, Day 7, steady state, n=4): 4.99
Geometric Mean Peak-to-Trough Ratio (Cmax/Cmin) ([6]; QD-7D 10 mg, Day 7, steady state, n=4): 5.10
Geometric Mean Peak-to-Trough Ratio (Cmax/Cmin) ([6]; QD-7D 20 mg, Day 7, steady state, n=3): 5.09
Geometric Mean Peak-to-Trough Ratio (Cmax/Cmin) ([6]; QD-7D 30 mg, Day 7, steady state, n=6): 4.72
Peak-to-Trough Ratio (Cmax/Cmin) ([6]; QD-7D 40 mg, Day 7, steady state, individual data, n=1): 6.59 ^†
Geometric Mean Peak-to-Trough Ratio (Cmax/Cmin) [6, 7]: 1.58
Cmin, Mean (SD) [6, 7]: 720 (359) nM
Geometric Mean Peak-to-Trough Ratio (Cmax/Cmin) [6, 8]: 1.32
Cmin, Mean (SD) [6, 8]: 1464 (301) nM
Geometric Mean Peak-to-Trough Ratio (Cmax/Cmin) [6, 9]: 1.45
Cmin, Mean (SD) [6, 9]: 1139 (803) nM
Geometric Mean Peak-to-Trough Ratio (Cmax/Cmin) [6, 10]: 1.44
Cmin, Mean (SD) [6, 10]: 1802 (846) nM
Geometric Mean Peak-to-Trough Ratio (Cmax/Cmin) ([6]; QID/M-7D 55 mg, Day 7, Dose 2, steady state, n=3): 1.81
Geometric Mean Peak-to-Trough Ratio (Cmax/Cmin) ([6]; QID/M-7D 60 mg, Day 7, Dose 2, steady state, n=6): 1.80
Geometric Mean Peak-to-Trough Ratio (Cmax/Cmin) ([6]; QID/M-7D 70 mg, Day 7, Dose 2, steady state, n=3): 1.65
Geometric Mean Peak-to-Trough Ratio (Cmax/Cmin) ([6]; QID/M-7D 80 mg, Day 7, Dose 2, steady state, n=3): 1.35
Geometric Mean Peak-to-Trough Ratio (Cmax/Cmin) ([6]; QID/M-14D 60 mg, Day 14, Dose 2, steady state, n=3): 1.29
Peak-to-Trough Ratio (Cmax/Cmin) ([6]; QID/M-21D 60 mg, Day 21, Dose 2, steady state, individual data, n=1): 1.59 ^†
